In PubChem BioAssay AID651795 (Broad Institute, 2012):
“And” between values parts separate entries of the source, which are not always exact repeats. Equal entries are not always repeated. Records with an inconclusive call do not appear. The source made the active and inactive calls.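 How the source made its calls: active means compounds whose fitted curve reaches 40% MLANA inhibition below twice the top dose tried; inconclusive means flat curve with 30 to 70% opposite effect, or poor fit; inactive means the rest.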

Test system: not listed separately
Assay: inhibitors of MLANA mRNA expression, dose response, cell-based, RT-qPCR, SK-MEL-5, dry powder (AID 651795)
Details: SK-MEL-5 MLANA mRNA qPCR, delta delta Ct, overnight; at 35 µM (top of the series)

Structure (SMILES)	MLANA expression inhibition
NC1=C(NS(=O)(=O)c2ccc(Br)s2)C(=O)c2ccccc2C1=O	31.6% (inactive)

Test system: SK-MEL-5 MLANA mRNA qPCR, delta delta Ct, overnight
Assay: as above
Details: not given

Structure (SMILES)	AC40
CC(C)N1CCN(C2=C(Nc3ccc(F)cc3)C(=O)c3ccccc3C2=O)CC1	5.31 µM
Cc1nc2ccccc2n1/N=C/c1ccc([N+](=O)[O-])s1	2.75 µM
CN1CCN(C2=C(Nc3ccc(F)cc3F)C(=O)c3ccccc3C2=O)CC1	3.45 µM
CCN1CCN(C2=C(NS(=O)(=O)c3ccc(Br)cc3)C(=O)c3ccccc3C2=O)CC1	6.43 µM
NC1=C(NS(=O)(=O)c2cccs2)C(=O)c2ccccc2C1=O	2.27 µM
CCN1CCN(C2=C(NC(=O)c3ccccc3)C(=O)c3ccccc3C2=O)CC1	1.15 µM
O=C1C=C(Nc2ccc([N+](=O)[O-])c(C(F)(F)F)c2)C(=O)c2ccccc21	0.119 µM
NC1=CC(=O)c2ccccc2C1=O	0.813 µM
NC1=C(NS(=O)(=O)c2ccccc2)C(=O)c2ccccc2C1=O	4.5 µM
O=C(NC1=C(Cl)C(=O)c2ccccc2C1=O)c1ccccc1	0.227 µM
NS(=O)(=O)c1ccc(NC2=CC(=O)c3ccccc3C2=O)cc1	0.0824 µM
O=C1C=C(NS(=O)(=O)c2ccccc2)C(=O)c2ccccc21	1.36 µM
COc1ccc(NC2=C(N3CCCCC3)C(=O)c3ccccc3C2=O)cc1	11 µM
O=C1C=C(NS(=O)(=O)c2ccc(Br)cc2)C(=O)c2ccccc21	2.44 µM
O=C1C(Nc2ccc(F)cc2)=C(N2CCCCC2)C(=O)c2ccccc21	9.24 µM
O=C1C=C(NS(=O)(=O)c2cccs2)C(=O)c2ccccc21	1.98 µM
NC1=C(NC(=O)c2ccccc2)C(=O)c2ccccc2C1=O	1.54 µM
COC1=C(NS(=O)(=O)c2ccc(Br)cc2)C(=O)c2ccccc2C1=O	9.12 µM
O=C1C(Nc2ccccc2)=C(c2ccccc2)C(=O)c2ccccc21	7.78 µM
COC1=C(Nc2ccccc2)C(=O)c2ccccc2C1=O	0.492 µM
O=C1C(Nc2ccc(Br)cc2)=C(N2CCCCC2)C(=O)c2ccccc21	14.3 µM
Cc1ccc(NC2=CC(=O)c3ccccc3C2=O)cc1	0.745 µM
O=C1C=C(Nc2ccccc2)C(=O)c2ccccc21	0.337 µM and 0.389 µM
CCN1CCN(C2=C(Nc3ccc(F)cc3F)C(=O)c3ccccc3C2=O)CC1	2.48 µM
CC(C)N1CCN(C2=C(Nc3ccc(F)cc3F)C(=O)c3ccccc3C2=O)CC1	3.47 µM
COC1=C(NS(=O)(=O)c2cccs2)C(=O)c2ccccc2C1=O	10.5 µM
C=CCNC1=C(Cl)C(=O)c2ccccc2C1=O	0.764 µM
O=C1C(NS(=O)(=O)c2cccs2)=C(c2ccccc2)C(=O)c2ccccc21	10.8 µM
O=C1C(Nc2ccc(Cl)cc2)=C(N2CCCC2)C(=O)c2ccccc21	8.64 µM
CN1CCN(C2=C(NS(=O)(=O)c3ccc(Br)s3)C(=O)c3ccccc3C2=O)CC1	2.93 µM
